Earlier results in patent US20230116647A1 (Bausch Health Ireland Limited, priority 2020, published 2023).

How the values were obtained:
visceral hyperalgesia = settings: rat, in vivo; cited from earlier work
[1] = system: species of Staphylococcus, Streptococcus, Enterococcus, and Enterobacteriaceae; settings: cited from earlier work
NASH = settings: after 6 months of therapy; all P<0.05; cited from earlier work
[2] = system: proteoglycan (PG)-induced ankylosing spondylitis; settings: administered for 4 consecutive weeks; cited from earlier work
[3] = system: Minimal Hepatic Encephalopathy; settings: cited from earlier work
Hepatic Encephalopathy = settings: mouse, in vivo; cited from earlier work

Molecule | elevation in IL-17, IL-6, or TNF-α (visceral hyperalgesia) | visceral pain (visceral hyperalgesia) | mucosal inflammation, measured by levels of IL-17, IL-6 and TNF-α (visceral hyperalgesia) | overall quantity of bacteria in the ileum (visceral hyperalgesia) | in vitro activity against bacteria [1] | homeostatic model assessment, ALT, AST, γ-glutamyl transferase, endotoxin, toll-like receptor-4, IL-6, TNF-α, CK-18, NAFLD-liver fat score (NASH) | inflammatory factors, such as TNF-α, IL-6, IL-17A, and IL-23 [2] | severity of ankylosing spondylitis [2] | responders in whom all alterations of the immune system were normalized ([3]; human, in vivo) [%] | effect on alterations of the immune system in non-responders ([3]; non-responders) | microbiota function (endotoxin, deconjugation and formation of secondary bile acids) (Hepatic Encephalopathy) | systemic inflammation (serum IL-1β, IL-6), intestinal barrier, microbiota composition and function (Hepatic Encephalopathy)
neomycin | did not prevent | did not decrease | – | – | – | – | – | – | – | – | – | –
CO[C@H]1/C=C/O[C@@]2(C)Oc3c(C)c(O)c4c(O)c(c5c(nc6cc(C)ccn65)c4c3C2=O)NC(=O)/C(C)=C\C=C\[C@H](C)[C@H](O)[C@@H](C)[C@@H](O)[C@@H](C)[C@H](OC(C)=O)[C@@H]1C [rifaximin, Rifaximin] | – | – | decreased | decreased | active | significant reduction | down-regulation | significantly reduced | 59 | normalizes only IL-6, CCL20, and differentiation of T lymphocytes to Th22 | favorably impacted | improved
